These results are taken from ChEMBL document CHEMBL5465560, “Selectivity Literature for EUbOPEN Chemogenomic Library” (2024).

The target of experiment [1] is T1, Serine/threonine-protein kinase Nek1 (Homo sapiens) (UniProt Q96PY6).
T1 sequence (whole entry): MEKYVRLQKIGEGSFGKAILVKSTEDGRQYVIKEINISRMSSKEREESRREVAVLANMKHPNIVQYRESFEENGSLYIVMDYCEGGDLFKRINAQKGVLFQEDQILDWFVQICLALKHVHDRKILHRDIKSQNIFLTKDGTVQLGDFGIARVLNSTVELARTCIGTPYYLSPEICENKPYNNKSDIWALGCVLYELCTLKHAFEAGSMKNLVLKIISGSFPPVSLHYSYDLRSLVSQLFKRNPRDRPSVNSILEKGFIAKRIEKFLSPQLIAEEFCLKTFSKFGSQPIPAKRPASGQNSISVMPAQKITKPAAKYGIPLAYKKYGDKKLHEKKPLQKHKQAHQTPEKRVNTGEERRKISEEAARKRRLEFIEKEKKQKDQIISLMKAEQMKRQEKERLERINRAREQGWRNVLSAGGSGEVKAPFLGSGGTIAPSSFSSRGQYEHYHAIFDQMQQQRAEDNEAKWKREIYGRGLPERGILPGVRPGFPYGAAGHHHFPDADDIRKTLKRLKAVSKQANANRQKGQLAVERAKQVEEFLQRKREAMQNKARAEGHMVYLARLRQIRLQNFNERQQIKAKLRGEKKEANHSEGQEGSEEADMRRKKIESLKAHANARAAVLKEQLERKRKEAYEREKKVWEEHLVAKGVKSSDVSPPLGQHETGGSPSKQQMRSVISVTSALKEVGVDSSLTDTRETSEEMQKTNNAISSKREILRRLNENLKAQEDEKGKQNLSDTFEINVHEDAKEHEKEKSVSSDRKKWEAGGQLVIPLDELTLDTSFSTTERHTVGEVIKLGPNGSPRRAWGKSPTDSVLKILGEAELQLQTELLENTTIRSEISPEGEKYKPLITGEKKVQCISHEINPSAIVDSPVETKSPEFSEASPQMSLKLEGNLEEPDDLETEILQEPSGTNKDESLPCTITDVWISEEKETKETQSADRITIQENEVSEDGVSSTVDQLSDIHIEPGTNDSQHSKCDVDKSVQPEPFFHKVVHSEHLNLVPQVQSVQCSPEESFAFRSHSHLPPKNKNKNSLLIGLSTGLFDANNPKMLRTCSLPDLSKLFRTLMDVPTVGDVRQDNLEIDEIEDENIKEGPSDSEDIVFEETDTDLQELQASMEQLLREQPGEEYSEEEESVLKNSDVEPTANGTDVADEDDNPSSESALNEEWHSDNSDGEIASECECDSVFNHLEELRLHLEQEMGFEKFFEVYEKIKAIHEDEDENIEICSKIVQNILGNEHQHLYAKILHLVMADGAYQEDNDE
The experiment in a line: Selectivity interaction (KinomeScan (DiscoverX)) EUB0001049a NEK1. Particulars: at 1 µM.

The target of experiment [2] is T2, Tyrosine-protein kinase ZAP-70 (Homo sapiens) (UniProt P43403).
T2 sequence (whole entry): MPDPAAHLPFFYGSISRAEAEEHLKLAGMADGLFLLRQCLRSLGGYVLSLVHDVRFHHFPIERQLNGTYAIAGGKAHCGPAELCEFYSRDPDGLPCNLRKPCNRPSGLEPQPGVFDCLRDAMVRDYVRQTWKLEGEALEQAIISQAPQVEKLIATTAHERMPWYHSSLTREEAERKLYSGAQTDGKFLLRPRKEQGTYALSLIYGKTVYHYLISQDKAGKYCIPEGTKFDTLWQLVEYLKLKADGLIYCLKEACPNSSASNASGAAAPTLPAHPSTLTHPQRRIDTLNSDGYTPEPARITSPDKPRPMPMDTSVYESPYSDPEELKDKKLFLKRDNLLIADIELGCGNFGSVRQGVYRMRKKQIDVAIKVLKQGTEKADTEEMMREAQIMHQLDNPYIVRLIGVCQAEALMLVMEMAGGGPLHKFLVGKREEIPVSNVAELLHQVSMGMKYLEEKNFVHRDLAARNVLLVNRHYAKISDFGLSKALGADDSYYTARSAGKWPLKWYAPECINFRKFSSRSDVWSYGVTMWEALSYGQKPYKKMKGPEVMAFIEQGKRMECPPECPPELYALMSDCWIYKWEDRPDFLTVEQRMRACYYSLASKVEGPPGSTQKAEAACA
The experiment in a line: Selectivity interaction (KinomeScan (DiscoverX)) EUB0000045b ZAP70. Particulars: at 1 µM.

Experiment [3] has as its target Cyclin-dependent kinase 11B (Homo sapiens) (UniProt P21127). The experiment in a line: Selectivity interaction (KinomeScan (DiscoverX)) EUB0000618a CDK11B. The settings on record: at 10 µM.
Experiment [4] deals with T3, Ephrin type-A receptor 8 (Homo sapiens) (UniProt P29322).
T3 sequence (whole entry): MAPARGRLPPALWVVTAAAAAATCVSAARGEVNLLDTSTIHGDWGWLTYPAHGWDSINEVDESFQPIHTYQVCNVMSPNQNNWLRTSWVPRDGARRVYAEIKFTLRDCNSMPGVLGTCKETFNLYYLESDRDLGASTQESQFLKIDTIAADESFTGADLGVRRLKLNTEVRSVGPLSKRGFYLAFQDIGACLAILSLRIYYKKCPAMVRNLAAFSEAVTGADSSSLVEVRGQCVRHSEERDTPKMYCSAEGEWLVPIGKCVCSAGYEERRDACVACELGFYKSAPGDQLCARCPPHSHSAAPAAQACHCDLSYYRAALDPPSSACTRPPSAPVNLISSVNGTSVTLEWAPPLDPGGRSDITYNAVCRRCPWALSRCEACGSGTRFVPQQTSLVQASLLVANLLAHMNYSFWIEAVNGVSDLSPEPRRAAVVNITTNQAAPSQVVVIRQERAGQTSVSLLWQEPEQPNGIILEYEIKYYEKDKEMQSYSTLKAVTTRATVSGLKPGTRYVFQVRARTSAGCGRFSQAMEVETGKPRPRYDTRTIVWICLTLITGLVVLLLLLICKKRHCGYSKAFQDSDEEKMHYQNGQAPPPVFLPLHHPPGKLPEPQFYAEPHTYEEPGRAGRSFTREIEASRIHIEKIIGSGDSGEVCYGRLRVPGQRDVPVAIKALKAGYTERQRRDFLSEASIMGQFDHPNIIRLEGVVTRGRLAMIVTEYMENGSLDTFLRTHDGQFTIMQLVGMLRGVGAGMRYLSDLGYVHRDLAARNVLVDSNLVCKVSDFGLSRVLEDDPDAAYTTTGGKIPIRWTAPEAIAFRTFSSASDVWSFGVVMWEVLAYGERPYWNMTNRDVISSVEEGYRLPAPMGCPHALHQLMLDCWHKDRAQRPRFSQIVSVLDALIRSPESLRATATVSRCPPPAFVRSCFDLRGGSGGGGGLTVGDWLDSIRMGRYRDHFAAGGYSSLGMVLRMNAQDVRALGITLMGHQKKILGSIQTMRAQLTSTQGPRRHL
Briefly: Selectivity interaction (Upstate Kinase Profiler service (Millipore)) EUB0000056c EPHA8. Particulars: at 1 µM.

Chain of Cyclin-dependent kinase 11B (Homo sapiens) (P21127 whole entry): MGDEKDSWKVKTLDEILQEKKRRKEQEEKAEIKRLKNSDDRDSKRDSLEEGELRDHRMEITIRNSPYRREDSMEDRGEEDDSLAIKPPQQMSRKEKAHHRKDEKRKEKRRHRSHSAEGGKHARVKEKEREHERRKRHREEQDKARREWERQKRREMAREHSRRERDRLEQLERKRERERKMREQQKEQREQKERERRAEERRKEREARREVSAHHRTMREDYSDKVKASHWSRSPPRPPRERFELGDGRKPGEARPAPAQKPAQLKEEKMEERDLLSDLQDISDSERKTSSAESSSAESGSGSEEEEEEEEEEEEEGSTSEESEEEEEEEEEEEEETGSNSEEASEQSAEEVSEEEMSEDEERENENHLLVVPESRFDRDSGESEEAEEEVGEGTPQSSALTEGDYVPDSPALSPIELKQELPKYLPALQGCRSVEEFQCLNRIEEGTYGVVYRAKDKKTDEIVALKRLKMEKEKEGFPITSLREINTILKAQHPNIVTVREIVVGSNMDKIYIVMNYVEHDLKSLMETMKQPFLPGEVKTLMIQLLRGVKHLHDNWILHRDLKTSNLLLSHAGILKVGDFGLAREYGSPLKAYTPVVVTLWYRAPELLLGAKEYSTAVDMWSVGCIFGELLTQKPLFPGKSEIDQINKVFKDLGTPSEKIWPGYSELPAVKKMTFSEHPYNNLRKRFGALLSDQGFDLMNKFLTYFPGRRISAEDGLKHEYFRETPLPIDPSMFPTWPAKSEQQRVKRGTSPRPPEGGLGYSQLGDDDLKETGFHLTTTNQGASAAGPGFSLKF

The compound `COc1cc(Nc2nc(C)cc(-c3cnn4nc(OC)ccc34)n2)cc(C(F)(F)F)c1` yielded a % of control in experiment [1] of 100%.
As for `C=CC(=O)Nc1cc(-n2c(=O)ccc3cnc4ccc(-c5ccc(NS(C)(=O)=O)cc5)cc4c32)ccc1C`, in experiment [2], the % of control amounted to 91%.
Consider `O[C@H]1CC[C@H](Nc2ncc3nc(Nc4c(F)cc(F)cc4F)n([C@H]4CCOC4)c3n2)CC1`, for which the % of control in experiment [3] amounted to 91%.
For the compound `Cc1ccc(-c2ccc3c(ccc4sc5c(c43)NC[C@@H](C)NC5=O)n2)cn1`, the % of inhibition in experiment [4] amounted to 1%.
